Assay results: ChEMBL document CHEMBL1800055, “Orally active MMP-1 sparing α-tetrahydropyranyl and α-piperidinyl sulfone matrix metalloproteinase (MMP) inhibitors with efficacy in cancer, arthritis, and cardiovascular disease” (J Med Chem, 2010)

What was measured:
[1] = molecular target: 72 kDa type IV collagenase (Homo sapiens, UniProt P08253)
Collagenase 3 = Collagenase 3 (Homo sapiens, UniProt P45452)
Cartilage tissue = assay: Ex vivo inhibition of IL-1 and oncostatin M-induced bovine nasal cartilage degradation assessed as release of hydroxproline measured up to 16 days by mass spectrometry; assay type: functional, tissue-based; conditions: Bos taurus, 384 h
Rattus norvegicus [2] = assay: Plasma concentration in rat at 10 mg/mL, iv and po; assay type: ADME, organism-based; conditions: in vivo
Neutrophil collagenase = Neutrophil collagenase (Homo sapiens, UniProt P22894)
Sequence of Neutrophil collagenase (P22894 whole entry): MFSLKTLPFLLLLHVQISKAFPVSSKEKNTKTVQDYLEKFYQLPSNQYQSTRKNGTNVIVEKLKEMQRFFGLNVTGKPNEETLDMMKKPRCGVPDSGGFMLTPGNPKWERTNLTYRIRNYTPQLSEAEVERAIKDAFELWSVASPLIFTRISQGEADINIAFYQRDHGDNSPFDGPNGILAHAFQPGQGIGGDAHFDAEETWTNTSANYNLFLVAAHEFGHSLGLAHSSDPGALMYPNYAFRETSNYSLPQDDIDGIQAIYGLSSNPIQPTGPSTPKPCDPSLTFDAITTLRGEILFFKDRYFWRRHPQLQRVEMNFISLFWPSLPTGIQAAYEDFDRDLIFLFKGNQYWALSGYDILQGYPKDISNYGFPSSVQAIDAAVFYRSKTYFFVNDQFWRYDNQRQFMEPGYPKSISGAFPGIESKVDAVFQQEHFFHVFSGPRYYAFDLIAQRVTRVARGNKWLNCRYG

Interstitial collagenase = molecular target: T1, Interstitial collagenase (Homo sapiens, UniProt P03956); assay type: cell-based, HT-1080
T1 sequence (P03956 whole entry): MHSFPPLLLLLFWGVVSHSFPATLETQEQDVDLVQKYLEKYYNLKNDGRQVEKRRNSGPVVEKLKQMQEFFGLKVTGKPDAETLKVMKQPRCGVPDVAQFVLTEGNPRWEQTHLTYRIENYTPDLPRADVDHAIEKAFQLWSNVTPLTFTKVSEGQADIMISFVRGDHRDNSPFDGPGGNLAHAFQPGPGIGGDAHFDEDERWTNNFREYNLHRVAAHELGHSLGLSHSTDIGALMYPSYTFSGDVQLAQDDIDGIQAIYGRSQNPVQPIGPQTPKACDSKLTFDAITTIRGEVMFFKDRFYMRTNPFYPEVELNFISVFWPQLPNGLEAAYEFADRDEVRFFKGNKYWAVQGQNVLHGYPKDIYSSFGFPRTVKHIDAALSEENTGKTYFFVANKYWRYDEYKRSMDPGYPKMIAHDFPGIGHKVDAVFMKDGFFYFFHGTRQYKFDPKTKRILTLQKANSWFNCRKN

[3] = Oral bioavailability in rat at 10 mg/mL; assay type: ADME, organism-based; conditions: in vivo
Matrilysin = molecular target: T2, Matrilysin (Homo sapiens, UniProt P09237)
T2 sequence (P09237 whole entry): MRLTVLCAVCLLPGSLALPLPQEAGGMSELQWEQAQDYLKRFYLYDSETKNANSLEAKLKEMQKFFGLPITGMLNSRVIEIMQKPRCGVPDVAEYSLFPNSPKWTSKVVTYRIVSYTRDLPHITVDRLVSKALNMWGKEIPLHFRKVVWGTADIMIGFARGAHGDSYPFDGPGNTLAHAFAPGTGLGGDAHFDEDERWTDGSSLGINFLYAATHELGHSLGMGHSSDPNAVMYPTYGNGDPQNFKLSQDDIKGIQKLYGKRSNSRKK

[4] = Half life in rat at 10 mg/mL, iv and po; assay type: ADME, organism-based; conditions: in vivo
[5] = Cmax in rat at 10 mg/mL, iv and po; assay type: ADME, organism-based; conditions: in vivo
Stromelysin-1 = Stromelysin-1 (Homo sapiens, UniProt P08254)
Sequence of Stromelysin-1 (P08254 whole entry): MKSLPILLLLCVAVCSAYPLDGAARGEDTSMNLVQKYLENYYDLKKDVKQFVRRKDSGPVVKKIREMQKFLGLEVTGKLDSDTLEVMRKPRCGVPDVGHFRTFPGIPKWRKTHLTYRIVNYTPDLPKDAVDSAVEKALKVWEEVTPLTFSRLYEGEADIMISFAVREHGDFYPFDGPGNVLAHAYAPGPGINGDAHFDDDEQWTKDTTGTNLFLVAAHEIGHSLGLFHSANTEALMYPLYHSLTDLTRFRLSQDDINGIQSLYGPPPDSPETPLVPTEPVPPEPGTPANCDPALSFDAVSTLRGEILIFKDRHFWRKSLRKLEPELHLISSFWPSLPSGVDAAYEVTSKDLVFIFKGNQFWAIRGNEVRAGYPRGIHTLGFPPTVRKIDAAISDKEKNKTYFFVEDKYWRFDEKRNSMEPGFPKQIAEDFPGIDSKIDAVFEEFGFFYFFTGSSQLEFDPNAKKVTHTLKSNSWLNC

[6] = Half life in rat at 20 mg/kg, po; assay type: ADME, organism-based; design: dose 20 mg/kg, route oral; conditions: in vivo
Rattus norvegicus [7] = assay: Plasma concentration in rat at 20 mg/kg, po; assay type: ADME, organism-based; design: dose 20 mg/kg, route oral; conditions: in vivo
[8] = Cmax in rat at 20 mg/kg, po; assay type: ADME, organism-based; design: dose 20 mg/kg, route oral; conditions: in vivo
[9] = Oral bioavailability in rat at 20 mg/kg; assay type: ADME, organism-based; conditions: in vivo

Sequence of 72 kDa type IV collagenase (P08253 whole entry): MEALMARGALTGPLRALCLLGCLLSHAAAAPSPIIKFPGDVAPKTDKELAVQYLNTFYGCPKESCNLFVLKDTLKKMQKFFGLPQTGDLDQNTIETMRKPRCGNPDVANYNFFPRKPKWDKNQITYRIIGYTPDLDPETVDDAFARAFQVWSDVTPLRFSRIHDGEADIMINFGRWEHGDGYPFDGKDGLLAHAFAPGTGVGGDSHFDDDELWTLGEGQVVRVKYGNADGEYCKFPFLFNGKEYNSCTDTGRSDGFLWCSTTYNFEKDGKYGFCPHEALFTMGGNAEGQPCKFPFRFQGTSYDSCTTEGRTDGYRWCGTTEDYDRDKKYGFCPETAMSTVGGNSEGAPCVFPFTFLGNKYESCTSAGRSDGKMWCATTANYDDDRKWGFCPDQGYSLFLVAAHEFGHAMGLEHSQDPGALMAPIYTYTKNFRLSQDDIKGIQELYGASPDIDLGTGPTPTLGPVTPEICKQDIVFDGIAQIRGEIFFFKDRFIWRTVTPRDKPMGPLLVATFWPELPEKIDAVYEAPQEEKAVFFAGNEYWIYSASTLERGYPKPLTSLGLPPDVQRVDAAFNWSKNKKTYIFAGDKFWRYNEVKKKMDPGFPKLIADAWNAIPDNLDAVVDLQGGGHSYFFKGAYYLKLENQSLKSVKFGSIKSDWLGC

IC50 [1]	IC50 (Collagenase 3)	IC50 (Cartilage tissue)	Cp (Rattus norvegicus [2])	IC50 (Neutrophil collagenase)	IC50 (Interstitial collagenase)	bioavailability [3]	IC50 (Matrilysin)	half-life [4]	Cmax [5]	IC50 (Stromelysin-1)	half-life [6]	Cp (Rattus norvegicus [7])	Cmax [8]	bioavailability [9]	SMILES
0.1 nM	0.4 nM	70 nM	1154 ng/mL	9.4 nM	8000 nM	33%	> 10000 nM	2.68 h	4300 ng/mL	22 nM					O=C(NO)C1(S(=O)(=O)c2ccc(Oc3ccc(C(F)(F)F)cc3)cc2)CCOCC1
0.2 nM	0.2 nM			1.9 nM	> 10000 nM		9000 nM			23.9 nM	2.99 h	14078 ng/mL	32900 ng/mL	34.1%	COCCN1CCC(C(=O)NO)(S(=O)(=O)c2ccc(Oc3ccc(SC(F)(F)F)cc3)cc2)CC1
		30 nM													O=C(NO)C1(CS(=O)(=O)c2ccc(Oc3ccc(Cl)cc3)cc2)CCOCC1 [CTS-1027]
	< 0.1 nM			0.6 nM	6000 nM		> 10000 nM			115 nM	1.25 h	1850 ng/mL	36800 ng/mL	46.8%	O=C(NO)C1(S(=O)(=O)c2ccc(Oc3ccc(OC(F)(F)F)cc3)cc2)CCN(Cc2ccccn2)CC1
